In US6774139B1, “Dual function microbicides” (Parker Hughes Institute, priority 2000, dated 2004):
Read-outs that look alike come from different tables or passages of the source.

Experiments:
[1] = partition coefficient n-octanol/water (Pa); type: physicochemical; conditions: UV absorption
Procedure: Partition of the test compounds between n-octanol and water as a measure of their lipophilicity was determined by taking the UV absorption of each compound in n-octanol, water-saturated n- octanol (1:1), and n-octanol-saturated water (1:1). The UV absorption maxima were determined by selecting a wavelength with the maximum absorption peak in the water-saturated octanol layer and the corresponding peak in the octanol-saturated water. Three absorption spectra were obtained for each compound. The partion coefficient (Pa) was calculated as the ratio of the compound concentration present in the lipid phase to the compound concentration present in the aqueous phase.

human sperm = assay: sperm immobilizing activity (SIA) by CASA; type: cell-based; conditions: for EC50: read-out: EC50 [SIA]
Procedure: To evaluate the effect of each of the 31 thiourea compounds on human sperm motility and kinematics, highly motile fractions of sperm were prepared from donor semen (n=8) by discontinuous (90-45%) gradient centrifugation using Enhance Plus medium (Conception Technologies, San Diego, Calif.) and the “swim-up” method. The swim-up method was used after density gradient centrifugation, washing, and resuspension of sperm in BWW-3% BSA. Pooled swim-up fraction was washed once prior to spermicidal assay.
All donor semen specimens were obtained after informed consent and in compliance with the guidelines of the Parker Hughes Institute Institutional Review Board. […] The stock solutions of thioureas were prepared in DMSO (100 mM) and diluted in assay medium to yield the desired concentrations (up to 1000 μM). Corresponding volume of DMSO (either 0.5% or 1%) was added to control tubes. After 3 hours of incubation at 37° C., the percentage of motile sperm was evaluated by CASA [53, 62-64]. The percent motilities were compared with sham-treated control suspensions of motile sperm.
For CASA, 5-μl of each sperm suspension was loaded into a 20-μm Microcell slide (Conception Technologies) in a counting chamber at 37° C. At least 5-8 fields per slide were scanned for analysis using a Hamilton Thome Integrated Visual Optical System (IVOS), version 10 instrument (Hamilton Thome Research Inc., Danvers, Mass.). Each field was recorded for 30 seconds. The computer calibrations were set at 30 frames at a frame rate of 30/second.
The sperm kinematics parameters that were determined included numbers of motile (MOT) and progressively (PRG) motile sperm; curvilinear velocity (VCL; a measure of the total distance traveled by a given sperm during the acquisition divided by the time elapsed); average path velocity (VAP; the spatially averaged path that eliminates the wobble of the sperm head), straight line velocity (VSL; the straight-line distance from beginning to end of track divided by time taken), beat cross frequency (BCF; frequency of sperm head crossing sperm average path), the amplitude of lateral head displacement (ALH; the mean width of sperm head oscillation), and the derivatives, straightness (STR=VSL/VAP×100) and linearity (LIN=VSL/VCL×100; departure of sperm track from a straight line). Data from each individual cell track were recorded and analyzed. At least 200 motile sperm were analyzed for each aliquot sampled.

HIV-1 strain HTLVIIIB = assay: p24 antigen production in HIV-1 infected PBMCs; type: cell-based
Procedure: The HTLVIIIB strain of HIV-1 was propagated in CCRF-CEM cells and the virus stocks obtained from cell-free supernatants of infected cells were titered using MT-2 cells. Cell-free supernatants were harvested and frozen in 1 ml aliquots at −70° C.
Stock solutions (10 mM) of thiourea compounds were prepared in dimethylsulfoxide (DMSO). Cells were cultured for 7 days in 96-well microtiter plates (100 μl/well; 2×10^6 cells/ml, triplicate wells) in the presence and absence of various concentrations (0.001 μM to 100 μM) of the thioureas. Cells from non-infected controls were handled in the same way except the virus was omitted from the preparation. Aliquots of culture supernatants were removed from the wells on the 7th day after infection for p24 antigen as previously described. The p24 enzyme immunoassay was the unmodified kinetic assay available commercially (Coulter Corporation/Immunotech, Inc., Westbrook, Me.). The assay uses a murine monoclonal antibody (mAb) to the HIV core protein coated onto microwell strips to which the antigen present in the test culture supernatant sample binds. The plates were read on a ELISA reader (Molecular Devices, Sunnyvale, Calif.) at 650 nm and p24 levels, expressed as ng/ml, were calculated against known standards supplied by Coulter/Imrunotech, Inc. Percent viral inhibition was calculated by comparing the p24 values for the test substance-treated infected cells with the p24 values for untreated infected cells (i.e., virus controls). […]

[2] = target: T1, purified recombinant HIV-1 RT (Human immunodeficiency virus type 1 group M subtype B, UniProt P03366); assay: cell-free Quan-T-RT RT inhibition assay (scintillation proximity); type: biochemical; conditions: for IC50: purified recombinant HIV-1 RT, cell-free
T1 construct: purified recombinant HIV-1 RT
Procedure: Each of the thirty one thiourea compounds was tested for RT inhibitory activity against purified recombinant HIV-1 RT using the cell-free Quan-T-RT system (Amersham Corp., Arlington Heights, Ill.), which utilizes the scintillation proximity assay principle.

[3] = motile human sperm, 3 hours at 37° C., CASA
[4] = Human immunodeficiency virus 1, PBMC, HIV-1 HTLVIIIB infected human PBMC, p24 antigen on 7th day, read-out: IC50 [p24]
[5] = Human immunodeficiency virus 1, PBMC, HIV-1 HTLVIIIB infected human PBMC, values in nM, read-out: IC50[p24]
[6] = Human immunodeficiency virus 1, PBMC, read-out: IC50 [p24]

Compound | Pa, Partition coefficient [1] | EC50 (human sperm; [3]) [nM] | IC50 (HIV-1 strain HTLVIIIB; [4]) [nM] | IC50 (HIV-1 strain HTLVIIIB; [5]) [nM] | IC50 ([2]; IC50 [rRT]) [nM] | also measured
S=C(NCCN1CCCCC1)Nc1ccc(Br)cn1 [HI 172] | 8.91 | > 500000 | < 1 | < 1 | 5800 | –
S=C(NCCN1CCCC1)Nc1ccc(Br)cn1 [HI 230] | 7.91 | > 500000 | 1000 | – | > 100000 | –
COc1ccc(CCNC(=S)Nc2ccc(Br)cn2)cc1OC [HI 232] | 22.7 | > 500000 | – | – | > 100000 | –
COc1ccc(OC)c(CCNC(=S)Nc2ccc(Br)cn2)c1 [HI 236] | 1.78 | > 500000 | < 1 | < 1 | 100 | –
COc1ccccc1CCNC(=S)Nc1ccc(Br)cn1 [HI 237] | 3.79 | > 500000 | 10 | – | 1000 | –
COc1cccc(CCNC(=S)Nc2ccc(Br)cn2)c1 [HI 239] | 1.07 | > 500000 | 3 | 1 to 10 | 400 | –
Fc1cccc(CCNC(=S)Nc2ccc(Br)cn2)c1 [HI 241] | – | > 500000 | < 1 | < 1 | 700 | –
Fc1ccc(CCNC(=S)Nc2ccc(Br)cn2)cc1 [HI 242] | 10.7 | > 500000 | 9 | 1 to 10 | 6400 | –
S=C(NCCc1ccc(Br)cc1)Nc1ccc(Br)cn1 [HI 243] | 4.16 | > 500000 | 70 | – | 900 | –
Cc1ccc(CCNC(=S)Nc2ccc(Br)cn2)cc1 [HI 244] | 1.49 | > 500000 | 30 | – | 700 | –
S=C(NCCc1cccc(Cl)c1)Nc1ccc(Br)cn1 [HI 254] | 6.20 | > 500000 | 10 | – | 3100 | –
S=C(NCCc1ccc(Cl)cc1)Nc1ccc(Br)cn1 [HI 255] | 2.23 | 160000 | 1 | 1 to 10 | 400 to 6400 | –
Oc1ccc(CCNC(=S)Nc2ccc(Br)cn2)cc1 [HI 256, N-[2-(4-hydroxyphenethyl)]-N′-[2-(5-bromopyridyl)]thiourea] | 2.93 | 233000 ± 68000 | – | – | – | IC50 (HIV-1 strain HTLVIIIB; [6]): 3060 nM
S=C(NCCN1CCNCC1)Nc1ccc(Br)cn1 [HI 258] | 5.92 | > 500000 | 2 | 2 | > 100000 | –
S=C(NCCc1ccccc1)Nc1ccc(Br)cn1 [HI 275] | 3.50 | 361000 ± 31000 | 4 | 4 | 1250 | –
FC(F)(F)c1ccc(NC(=S)NCCc2ccccc2)nc1 [HI 308, N-[2-(phenethyl)]-N′-[2-(5-trifluoromethylpyridinyl)]-thiourea] | – | > 500000 | – | – | > 100000 | anti-HIV activity (in words) [2]: inactive
FC(F)(F)c1ccc(NC(=S)NCCc2ccccn2)nc1 [HI 309] | 3.81 | > 500000 | – | – | 13900 | –
COc1ccc(OC)c(CCNC(=S)Nc2ccc(C(F)(F)F)cn2)c1 [HI 310, N-[2-(5-dimethoxyphenethyl)]-N′-[2-(5-trifluoromethylpyridinyl)]-thiourea] | 1.00 | 276000 ± 22000 | – | – | – | IC50 (HIV-1 strain HTLVIIIB; HIV-1 HTLVIIIB infected human PBMC, p24 antigen on 7th day, read-out: IC50 [p24]): 80 nM; IC50 ([2]; read-out: IC50 [rRT]): 2000 nM
Fc1ccccc1CCNC(=S)Nc1ccc(C(F)(F)F)cn1 [HI 311] | 5.13 | > 500000 | 90 | – | 600 | –
FC(F)(F)c1ccc(NC(=S)NCCN2CCCCC2)nc1 [HI 344] | 10.27 | 131000 | – | – | > 100000 | –
Fc1cccc(CCNC(=S)Nc2ccc(Br)cn2)c1 [HI 345] | 1.51 | > 500000 | – | – | – | IC50 ([2]; read-out: IC50 [rRT]): 700 nM
FC(F)(F)c1ccc(NC(=S)NCCC2=CCCCC2)nc1 [HI 347, N-[2-(5-trifluoromethylpyridinyl)]-N′-[2-(1-cyclohexenyl)ethyl]-thiourea] | 11.5 | 131000 ± 4000 | – | – | – | effective 100% inhibitory concentration (EC100), sperm motility (human sperm; FIG. 1, CASA): 0.25 mM; SIA, fold less active than halo functionalized derivatives (human sperm; versus PHI-346 and PHI-445): two to three-fold less active; IC50 (HIV-1 strain HTLVIIIB; [6]): 79 nM; anti-HIV activity, fold less active than halo functionalized derivatives (HIV-1 strain HTLVIIIB; versus PHI-346 and PHI-445): 26 fold
S=C(NCCc1cccs1)Nc1ccc(Br)cn1 [HI 443] | – | > 500000 | – | – | 5300 | IC50 (HIV-1 strain HTLVIIIB; [6]): 30 nM
CC1(C)C2CCC(CNC(=S)Nc3ccc(Br)cn3)C1C2 (stereo not drawn) [HI 444] | 2.1 | > 500000 | – | – | – | anti-HIV activity (in words) [2]: loss of anti-HIV activity; IC50 ([2]; read-out: IC50 [rRT]): > 100000 nM
S=C(NCCC1=CCCCC1)Nc1ccccn1 [HI-541] | – | > 500000 | 10 | – | 5300 | –
S=C(NCCc1ccccn1)Nc1ccc(Br)cn1 [Trovirdine, reference compound] | 5.3 | – | – | – | – | SIA / sperm motility (in words) (human sperm): lacked SIA; EC50 (human sperm; Homo sapiens, Sperm, 3 h): > 500000 nM; IC50 (HIV-1 strain HTLVIIIB; [6]): 7 nM
